Patent US20250152584A1, “NLRP3 INFLAMMASOME INHIBITOR AND USES THEREOF” (TransThera Sciences (Nanjing), Inc., priority 2022, published 2025)
Like-named read-outs stand apart in the source and are kept apart here.

Assays:
[1] = Pharmacokinetic study in beagles; type: in vivo; details: beagle, dog, plasma, male beagles
Description: Experimental Example 4: Pharmacokinetic Study of Compounds in Beagles
Compound 174 was prepared into a solution with a mixed solvent formulated from 5% dimethyl sulfoxide, 20% (30% solutol) and 75% normal saline; the solution of this compound was administered to male beagles by gavage at a dose of 1.0 mg/kg; and the time points for blood collection were: 15 min, 30 min, 1 b, 2 h, 4 h, 6 b, 8 h, 10 h and 24 h. The solution of the compound was administered to male beagles by intravenous bolus at a dose of 1.0 mg/kg, and the time points for blood collection were as follows: 5 min, 15 min, 30 min, 1 h, 2 h, 4 h, 6 h, 8 h, 10 h, and 24 h.
Compound 177 and Compound 195 were prepared into solutions with a mixed solvent formulated from 5% dimethyl sulfoxide, 20% (30% solutol) and 75% normal saline, respectively; the solutions of these compounds were administered to male beagles by gavage at a dose of 1.0 mg/kg; and the time points for blood collection were: 15 min, 30 min, 1 h, 2 h, 4 h, 6 h, 8 h, 10 h and 24 h. The solution of the compound was administered to male beagles by intravenous bolus at a dose of 1.0 mg/kg, and the time points for blood collection were as follows: 5 min, 15 min, 30 min, 1 h, 2 h, 4 h, 6 h, 8 h, 10 h, and 24 h.
Approximately 400 μL of blood was collected through the medial cephalic vein of the forelimb and placed in an anticoagulant tube containing EDTA-K2. Blood samples were centrifuged at 12,000 rpm for 10 min at 4° C. to obtain plasma samples, and plasma was prepared within 30 min after blood collection. The plasma was stored in a −80° C. freezer before testing.

[2] = biological target: T1, hERG potassium ion channel (Homo sapiens, UniProt Q12809); experiment: Inhibition of hERG potassium ion channels, manual patch-clamp in HEK-293 cells; type: cell-based; details: HEK-293 cells stably expressing hERG, whole-cell manual patch-clamp, room temperature
T1 construct: expressed in transfected cells
T1 sequence (Q12809 whole entry): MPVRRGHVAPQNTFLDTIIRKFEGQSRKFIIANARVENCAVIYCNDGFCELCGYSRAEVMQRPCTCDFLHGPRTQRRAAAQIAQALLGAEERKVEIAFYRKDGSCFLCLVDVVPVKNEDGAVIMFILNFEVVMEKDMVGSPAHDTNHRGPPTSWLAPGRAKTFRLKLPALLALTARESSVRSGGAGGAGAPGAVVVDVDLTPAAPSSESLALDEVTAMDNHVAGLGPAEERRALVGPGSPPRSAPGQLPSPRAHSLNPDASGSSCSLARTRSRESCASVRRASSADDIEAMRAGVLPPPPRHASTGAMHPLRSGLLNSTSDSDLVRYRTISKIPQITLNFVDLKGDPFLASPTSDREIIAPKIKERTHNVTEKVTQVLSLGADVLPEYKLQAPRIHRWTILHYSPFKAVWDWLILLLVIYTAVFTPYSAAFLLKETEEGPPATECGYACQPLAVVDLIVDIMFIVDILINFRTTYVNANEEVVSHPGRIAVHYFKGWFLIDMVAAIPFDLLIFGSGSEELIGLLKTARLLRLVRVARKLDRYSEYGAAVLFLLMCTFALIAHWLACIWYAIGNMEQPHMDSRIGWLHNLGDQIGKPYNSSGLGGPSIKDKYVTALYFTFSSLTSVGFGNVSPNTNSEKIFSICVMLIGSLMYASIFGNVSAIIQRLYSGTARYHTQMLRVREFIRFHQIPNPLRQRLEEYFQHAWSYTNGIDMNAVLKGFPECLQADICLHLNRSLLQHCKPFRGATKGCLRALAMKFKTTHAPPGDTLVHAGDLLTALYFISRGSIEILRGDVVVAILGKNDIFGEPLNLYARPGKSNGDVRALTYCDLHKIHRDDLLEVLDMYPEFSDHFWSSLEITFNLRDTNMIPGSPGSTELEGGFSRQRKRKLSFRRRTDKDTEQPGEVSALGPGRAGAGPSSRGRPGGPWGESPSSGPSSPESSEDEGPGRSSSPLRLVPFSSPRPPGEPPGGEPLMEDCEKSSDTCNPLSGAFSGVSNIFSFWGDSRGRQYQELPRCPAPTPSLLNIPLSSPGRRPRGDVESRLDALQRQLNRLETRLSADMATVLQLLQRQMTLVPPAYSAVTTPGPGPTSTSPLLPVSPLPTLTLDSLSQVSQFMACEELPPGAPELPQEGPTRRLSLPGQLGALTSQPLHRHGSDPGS
Description: Experimental Example 5: Test for Inhibition of hERG Potassium Ion Channels by Compound
Experimental Objective: To study the inhibitory effect of the compound on hERG potassium ion channels by a manual patch-clamp technique. […]
• 2.1 Blank control: DMSO stock. • 2.2 Positive control: 10 mM stock formulated from a appropriate amount of Cisapride and dimethyl sulfoxide (DMSO). The stock was aliquoted and stored at −20° C. • 2.3 Compound: An appropriate amount of compound was weighed; the volume of DMSO required was calculated according to the formula: DMSO volume=actual amount×purity (content)/(molecular weight×theoretical concentration), and the corresponding volume of DMSO was pipetted; then, the weighed compound was dissolved with the pipetted DMSO, and the mass of DMSO was measured at the same time; and finally, the actual stock concentration was calculated according to the final amount of DMSO used. […]

AUC(0-t) ([1]; po, gavage 1.0 mg/kg, read-out: AUClast po (area under the drug-time curve for 0-24 h)) [ng·h/mL] | Cmax ([1]; po, gavage 1.0 mg/kg, read-out: Cmax po (peak concentration)) [ng/mL] | Tmax ([1]; po, gavage 1.0 mg/kg, read-out: Tmax po (peak time of plasma concentration)) [h] | half-life ([1]; po, gavage 1.0 mg/kg, read-out: tz1/2 po (terminal elimination half-life) (converted)) [h] | AUC(0-t) ([1]; intravenous bolus 1.0 mg/kg, read-out: AUClast iv (area under the drug-time curve for 0-24 h)) [ng·h/mL] | clearance ([1]; intravenous bolus 1.0 mg/kg, read-out: Cl—obs iv (clearance rate) (converted)) [mL/min/kg] | Vd ([1]; intravenous bolus 1.0 mg/kg, read-out: Vss iv (volume of distribution)) [L/kg] | half-life ([1]; intravenous bolus 1.0 mg/kg, read-out: tz1/2 iv (terminal elimination half-life) (converted)) [h] | bioavailability ([1]; iv 1.0 mg/kg / po 1.0 mg/kg, read-out: F % (absolute bioavailability)) [%] | Structure (SMILES) | IC50 [2] [µM]
1660 | 105 | 4 | 14.7 | 1980 | 5.53 | 7.39 | 15.8 | 83.8 | CC#Cc1ccc(-c2nnc(N[C@@H]3CCCN(C)C3)cc2C)c(O)c1 [Compound 174, (R)-2-(4-methyl-6-((1-methylpiperidin-3-yl)amino)pyridazin-3-yl)-5-(prop-1-yn-1-yl)phenol] | 
 |  |  |  |  |  |  |  |  | C#Cc1ccc(-c2nnc(N[C@@H]3CCCN(C)C3)cc2C)c(O)c1 [Compound 54, (R)-5-ethynyl-2-(4-methyl-6-((1-methylpiperidin-3-yl)amino)pyridazin-3-yl)phenol] | > 10
